A word on the melting point: it is the temperature of the solid-liquid transition.

`O=C(O)Cn1cc(Br)ccc1=O` came in with a melting point of 239 to 241 °C. Then `O=[N+]([O-])c1ccccc1CS(=O)(=O)Cl`, with 64 to 66 °C; and `Cc1cc(F)cc(C(=O)O)c1N`, with 191 to 193 °C; and `CCCC(CN)C(=O)O` (stereo unspecified), with 219 to 221 °C.

Compound `CC(Nc1ccccn1)c1ccco1` (stereo unspecified) showed a melting point of 136 to 138 °C. For the compound `CC(=O)N(CCC#N)C(C)C`, the melting point lay in the range of 59 to 61 °C. Compound `COC(=O)c1ccc(Br)c(C)c1N` gave a melting point of 79 to 81 °C. Then `Cc1cccc(N2CC(C(=O)O)CC2=O)c1C` (stereo unspecified), with 211 to 213 °C.

Regarding `N#Cc1cccc(N2C(=O)CCC2=O)c1`, the melting point was in the range of 134 to 136 °C. Then `Nc1cc(=O)[nH]c(S)n1`, with 300 to 302 °C; and `C=CC(CC(=O)O)c1ccccc1` (stereo unspecified), with 39 to 41 °C; and `O=C1CC(c2ccccc2)Nc2ccccc2N1` (stereo unspecified), with 162 to 164 °C. Then `CN1CCN(C)c2cc(N)ccc2C1=O`, with 188 to 190 °C; and `COc1ccc(C(=O)O)cc1S(=O)(=O)NC(C)C`, with 194 to 197 °C; and `O=C(O)C1CCN(C(=O)c2cccnc2)CC1`, with 188 to 190 °C.

In turn, `O=C1NC(=O)C2(CCNC2)N1` (stereo unspecified) registered a melting point of 201 to 203 °C. Next, `Nc1c(C(=O)O)ccc(Cl)c1Cl`: 235 to 237 °C. Compound `CC(C)(C)NS(=O)(=O)c1cccc(C(=O)O)c1` yielded a melting point of 145 to 147 °C. `Cc1ccc(Nc2nnc(S)s2)cc1C` had a melting point of 181 to 183 °C.

Compound `CC(C)NCc1nnc(-c2ccc([N+](=O)[O-])cc2)o1` showed a melting point of 175 to 182 °C. Then `CN1C(=O)CCC(CO)C1c1ccc(C(F)(F)F)cc1` (stereo unspecified), with 95 to 97 °C; and `O=C(O)c1cccc(S(=O)(=O)Nc2ccc(Br)cc2)c1`, with 241 to 243 °C; and `Nc1cc(-c2ccccc2Cl)no1`, with 69 to 71 °C.

Compound `CS(=O)(=O)CCC1NC(=O)NC1=O` (stereo unspecified) returned a melting point of 160 to 162 °C. `CC1(C)CCC(C)(C)c2cc(C(=O)O)ccc21` yielded a melting point of 199 to 201 °C. With `CS(=O)(=O)c1ccc(OCC(=O)O)cc1`, the melting point was in the range of 172 to 174 °C. Regarding `O=C(O)c1ncoc1-c1cccs1`, the melting point fell in the range of 200 to 202 °C. `O=C(O)c1sc(C2CC2)nc1C(F)(F)F` showed a melting point of 146 to 148 °C. Next, `O=C(CCl)c1c(-c2ccccc2)[nH]c2ccccc12`: 140 to 142 °C; `Cc1cc(N)c(N)cc1C`: 127 to 129 °C; `Nc1ccc(Oc2ccc(CO)cc2)cc1`: 79 to 81 °C. As to `Cc1nccn1-c1ncccc1N`, the melting point fell in the range of 166 to 168 °C. Next, `CC(C)Cn1cnc2c1c(=O)[nH]c(=O)n2Cc1ccccc1`: 179 to 181 °C.

`Nc1nnc(Cc2cccc3ccccc23)o1`: the melting point lay within 224 to 226 °C. `O=S(=O)(Cl)C1CCOCC1` registered a melting point of 34 to 36 °C. Then `CCC(C)(NC(=O)c1ccccc1)C(N)=S` (stereo unspecified), with 162 to 164 °C; and `O=C(O)C1CCN(S(=O)(=O)c2ccc3ccccc3c2)CC1`, with 180 to 182 °C. In turn, `CCOC(=O)Cc1nc(-c2ccc(OC)c(OC)c2)no1` displayed a melting point of 75 to 77 °C. Next, `NS(=O)(=O)c1ccc(Cl)c2ccccc12`: 181 to 183 °C; `CC(CC(N)=S)n1cc(Cl)cn1` (stereo unspecified): 128 to 130 °C. In the case of `CON(C)S(=O)(=O)c1ccc(Cl)c(C(=O)O)c1`, the melting point lay in the range of 184 to 186 °C. Next, `O=C(O)CCOc1ccc(Cl)cc1Cl`: 93 to 95 °C; `CCc1cccc2c(CC(=O)O)c[nH]c12`: 175 to 177 °C; `NCc1ccccc1CS(=O)(=O)N1CCOCC1`: 90 to 92 °C. Then `COC(=O)C1CCN(c2ccnc(C#N)c2)CC1`, with 104 to 106 °C; and `CC1C=CC2C(=O)N(C)C(=O)C2C1C(=O)O` (stereo unspecified), with 172 to 174 °C. Turning to `Cc1ccc(NC(=O)c2c(F)cccc2Cl)c(C(=O)O)c1`, the melting point was in the range of 249 to 251 °C.

On to `Cc1cc(CC(=O)O)c(C)s1`, for which the melting point lay within 66 to 68 °C. Then `CN(C)S(=O)(=O)c1ccc(O)c(N)c1`, with 154 to 156 °C; and `O=C(CCl)N1CC=C(c2ccccc2)CC1`, with 86 to 88 °C; and `N#Cc1ccccc1NC(=O)c1ccccn1`, with 136 to 138 °C.

In turn, `Cc1ccc(C(=O)O)cc1S(=O)(=O)Cl` came in with a melting point of 140 to 147 °C. `N#Cc1ccc(F)c(CN2CCCC2=O)c1` registered a melting point of 92 to 94 °C.

As to `O=C1NCCNC1c1cccc(Br)c1` (stereo unspecified), the melting point was 117 to 119 °C. Then `CC(=O)N1CC(C(=O)O)C1`, with 149 to 151 °C. In the case of `Cc1nsc(N)c1C(=O)O`, the melting point was in the range of 158 to 160 °C. Then `N#CCOc1ccc(CO)cc1`, with 98 to 100 °C; and `CCOC(=O)c1cnc2cc(Br)ccc2c1O`, with 329 to 331 °C; and `CC(C(=O)O)S(=O)(=O)Cc1cccc(Br)c1` (stereo unspecified), with 109 to 111 °C. `Nc1nc(C2CC2)c(Cc2ccccc2F)s1` had a melting point of 114 to 116 °C. Compound `CCC(C)C(=O)NCC(=O)O` (stereo unspecified) showed a melting point of 101 to 104 °C. As for `CS(=O)Cc1c(C(=O)O)oc2ccccc12` (stereo unspecified), the melting point was in the range of 177 to 179 °C.

With `O=C(CCCl)Nc1ccc(S(=O)(=O)N2CCCC2)cc1`, the melting point fell in the range of 174 to 176 °C. Then `Cc1cc(C=O)c(C)n1-c1nccs1`, with 43 to 45 °C. Next, `NC(=O)Nc1ccc(CC(=O)O)cc1`: 179 to 182 °C. Next, `Cc1nccn1-c1cccc(F)n1`: 97 to 99 °C; `Oc1ccc2oc3c(c2c1)CCCC3`: 103 to 105 °C. In turn, `O=C(O)c1ccccc1CSc1nc2ccccc2o1` came in with a melting point of 175 to 177 °C.

In the case of `c1ccc(COc2cccc3cn[nH]c23)cc1`, the melting point is 126 to 128 °C. The compound `NNC(=O)c1ccccn1` returned a melting point of 95 to 100 °C. Next, `O=C(CCCl)Nc1cc([N+](=O)[O-])ccc1F`: 84 to 86 °C. `BrCCOc1ccc(Oc2ccccc2)cc1` returned a melting point of 35 to 37 °C.

As to `Cc1noc(C)c1C(C)CC(=O)O` (stereo unspecified), the melting point lay within 95 to 97 °C. Regarding `O=C(O)c1oc2ccccc2c1CO`, the melting point lay within 153 to 155 °C.

For `CC(=O)c1cccc(N2CCOC2=O)c1`, the melting point was 82 to 84 °C. Then `CC(=O)Oc1ccc(C)cc1C(=O)O`, with 154 to 156 °C; and `NS(=O)(=O)c1ccc(S)nc1`, with 242 to 244 °C. Next, `COCCNS(=O)(=O)c1cc(C(=O)O)ccc1OC`: 183 to 185 °C; `Cc1cc(-c2cccc(F)c2)nnc1Cl`: 132 to 134 °C; `Clc1nc(Br)n[nH]1`: 178 to 180 °C. Next, `CCN(C1CC1)S(=O)(=O)c1c(C)n[nH]c1C`: 97 to 99 °C; `CC(Br)C(=O)c1ccc(Oc2ccccc2)cc1` (stereo unspecified): 86 to 88 °C. Compound `Cc1ccc(C(=O)O)cc1NC(=O)c1ccccc1F` yielded a melting point of 268 to 270 °C. In the case of `C=CCNS(=O)(=O)c1cccc(C(=O)O)c1`, the melting point was in the range of 180 to 182 °C. As for `CNc1nc2ccccc2[nH]1`, the melting point lay within 190 to 192 °C. Then `COC(=O)c1cc(OC)c(S(=O)(=O)O)s1`, with 109 to 111 °C; and `Nc1nc(-c2cccc(Cl)c2)ns1`, with 149 to 151 °C; and `Cc1cc(O)cc(=O)n1C1CC1`, with 264 to 266 °C. Compound `Nc1ccc(NC(=O)NCC2CCCO2)cc1` (stereo unspecified) gave a melting point of 141 to 143 °C. In turn, `Cc1nc(CCC(=O)O)oc1-c1ccc(Br)cc1` yielded a melting point of 179 to 181 °C. Next, `O=C(O)C1CCN(C(=O)c2ccoc2)CC1`: 103 to 105 °C; `COCCC(NC(C)=O)C(=O)O` (stereo unspecified): 152 to 154 °C. For `OC(c1ccc(F)cc1)C1CCNCC1` (stereo unspecified), the melting point is 146 to 148 °C. On to `CCOC(=O)c1oc2ccc(Br)cc2c1C`, for which the melting point fell in the range of 89 to 91 °C.

The compound `O=C(O)c1nc(C2CC2)n(-c2ccccc2Cl)n1` gave a melting point of 162 to 164 °C. Then `Nc1ccc(S(=O)(=O)Nc2ccc(F)cc2F)cc1`, with 162 to 164 °C; and `O=c1c2sccc2ncn1CCO`, with 179 to 181 °C. Then `Clc1cc(-c2cccnc2)nc2ncnn12`, with 175 to 177 °C; and `NNc1ccc(S(=O)(=O)Nc2ccccc2)cc1[N+](=O)[O-]`, with 207 to 209 °C. With `Cc1cc(C(=O)O)c(C)n1-c1ccccn1`, the melting point fell in the range of 187 to 189 °C. Next, `Cc1cccc(-c2nc3cc(F)ccc3[nH]2)c1O`: 251 to 253 °C; `Cc1cc(S(=O)(=O)Cl)cnc1Cl`: 54 to 56 °C. `O=C(O)C=Cc1cc(Br)cs1` registered a melting point of 169 to 171 °C. Then `Cc1nn(C)c(C)c1C(=O)C(=O)O`, with 160 to 168 °C; and `c1ccc(CN2CCNc3ccccc32)cc1`, with 44 to 46 °C.

Compound `ClCc1nnc(-c2cccs2)o1` returned a melting point of 77 to 79 °C. Take `CCc1ccccc1Nc1nc(N)nc(CCl)n1`: the melting point fell in the range of 146 to 149 °C. `Cc1occc1-c1nnc(S)n1Cc1ccccc1` yielded a melting point of 134 to 136 °C. Then `C#CCn1c2ccccc2c2ccccc21`, with 103 to 105 °C. Next, `CCOc1ccccc1C(=O)NCC(=O)O`: 166 to 168 °C; `CC1(c2ccc(Br)cc2)NC(=O)NC1=O` (stereo unspecified): 262 to 264 °C; `CN(C)C(=O)COc1ccc(C#N)cc1`: 110 to 112 °C. Then `Nc1ccc2oc(=O)ccc2c1`, with 159 to 161 °C. The compound `Cc1ccc(C(=O)COc2ccc(C=O)cc2)cc1C` gave a melting point of 65 to 67 °C. Then `O=C(COc1ccccc1)Nc1cc(Cl)ccc1C(=O)O`, with 247 to 249 °C; and `Cc1ccc(C(=O)C(=O)O)cc1`, with 176 to 178 °C; and `CC(C)n1ncc2cc(S(=O)(=O)Cl)ccc21`, with 88 to 90 °C. With `CCOC(=O)c1cc(N)[nH]n1`, the melting point was 118 to 120 °C. Next, `O=C(NCC(F)(F)F)OCC(F)(F)F`: 53 to 55 °C; `COc1ccc(C(=O)c2ccccc2)c(OC)c1`: 81 to 83 °C; `Cc1cc(C)c(NC(=O)C(C)Cl)c(Cl)c1` (stereo unspecified): 157 to 159 °C.
